# Results taken from patent US20240342158A1, “METHOD OF TREATING AND/OR PREVENTING TYPE 1 DIABETES WITH CEPHARANTHINE” (ALBERT EINSTEIN COLLEGE OF MEDICINE, priority 2021, published 2024).
# Legend:
# [1] = target: recombinant APS3v-HLA-DR3 (Homo sapiens, UniProt P01903+P01911, A100K/A102G/A103R/F55Y/I96L/K41T/P40S/Q125H/Q178H/Q39Y/R42S/S66N/T106N/W38E/Y61H); assay: ELISA inhibition assay of biotinylated peptide binding to recombinant APS3v-HLA-DR3
# Method: An in vitro binding assay was performed. […] On the day before the immunoassay was performed, a 96-well DELFIA yellow plate (PerkinElmer Life Science) was coated overnight with 20 μg/ml of L243 antibody [Hybridoma was purchased from ATCC, catalogue number HB-55, and IgG was purified by QED Bioscience (San Diego, CA)] in bicarbonate buffer, pH 9.6 (Sigma-Aldrich). L243 is a monoclonal antibody that specifically recognizes the DRa chain of HLA-DR when it is properly folded and complexed with the b chain. The plate was then washed with DELFIA wash buffer (diluted 1:25 from DELFIA wash concentrate, PerkinElmer) to wash off the excess L243 antibody. Blocking was performed using 2.5% BSA in PBS at room temperature for 1 h. After washing 4 times, 100 μl of the pre-incubated mix (containing recombinant APS3v-HLA-DR3 protein, APO, and small molecules) were added onto the plate and shaken at slow speed for 2 h at room temperature. After washing 4 times, DELFIA Europium-labeled streptavidin (PerkinElmer) diluted in DELFIA assay buffer (PerkinElmer) was added for 30 min and shaken at slow speed at room temperature. After washing for 6 times, DELFIA Enhancement Solution was added for 1 h until the optimal signal was reached. Time-resolved fluorescence was measured using the BMG reader (BMG Labtech, Cary, NC). A virtual screen identified 100 small molecules that were predicted to block the unique APS3v-HLA-DR3 pocket. To produce a manageable selection of compounds for validation we clustered the 100 compounds by their simplified molecular input line entry system (SMILES) similarity into 20 clusters. Of the 20 clusters we selected the top scoring members in each cluster. We have enhanced this list to include a total of 11 compounds that blocked APS3v-HLA-DR3, the key HLA-DR3 pocket that triggers APS3v. We tested the selected 11 small molecules identified by the virtual screen in our in vitro ELISA, to test whether the 11 small molecules can block APO peptide (the strongest known peptide binder to HLA-DR3) binding to recombinant APS3v-HLA-DR3. Of the 4 validated small molecules we selected S53 for further testing because it is the only one that has been used in humans before. […] ELISA was performed as previously described.
# [2] = tested on: humanized NOD-DR3 mice immunized with Tg.1571, GAD.492 and TPO.758; assay: Blocking the induction of APS3v in vivo: T-cell stimulation by CFSE analysis; design: stimulation index, T cell proliferation induced by GAD.492 / stimulation index, T cell proliferation induced by TPO.758 / T-cell proliferation induced by Tg.1571: dose or concentration left out as unconfirmed
# Method: Blocking the Induction of APS3v by cepharanthine In Vivo: […] with the peptide mix of Tg.1571, GAD.492 and TPO.758 on day 0; mice were injected with cepharanthine IP again on days 5 and 6 prior to immunization with the same peptide mix on day 7. As controls, four humanized NOD-DR3 littermates were injected with the vehicle that was used to dissolve cepharanthine for in vivo studies [ethanol: PEG400 (Fisher Scientific): saline (5:20:75)] (Frontage Laboratories, Exton, PA) using the same timeline for immunizations.
# T-Cell Stimulation and CFSE Analysis: Cells harvested from the spleen and draining lymph nodes of immunized mice were resuspended at 2×10^6 cells/ml in 0.1% BSA/PBS. 1×10^6 cells were labeled with 1.5 μM carboxyfluorescein diacetate succinimidyl ester (CFSE) (Life Technologies). After incubating for 10 min at 37° C., the staining was terminated by the addition of 4 volumes of ice-cold RPMI with 10% FBS. After incubating on ice for 5 min, the cells were washed three times with fresh RPMI and resuspended in fresh medium for counting.
# The CFSE-labeled cells were plated at 2×10^5 cells/well in 100 μl medium (RPMI, 10% FBS). The cells were incubated with: medium, Tg.1571, GAD.492, TPO.758 (20 μg/ml), a negative control peptide (NC) (20 μg/ml), or mouse anti-CD3/CD28 beads (Life Technologies) that activate all CD4+ T-cells nonspecifically, as a positive control. The cells were collected after 5 days for flow cytometry analysis. All experiments were performed in quadruplicates. The results were analyzed using Flowjo (Tree Star, Ashland, OR). The stimulation index was calculated by using the following formula: stimulation index=[% proliferating lymphocytes (peptide/mitogen-treated)]/[% proliferating lymphocytes (medium-treated)].
# Four humanized NOD-DR3mice were treated with cepharanthine (S53) or vehicle (used to dissolve cepharanthine) for 2 consecutive days before each of the two immunizations with Tg.1571,GAD.492 and TPO.758 peptide mix. At sacrifice, splenocytes and draining lymph node cells were incubated with each peptide and labeled with CFSE for 5 days for T-cell stimulation analysis. Briefly, the CFSE labeled cells were plated at 2×10^5 cells/well in 100 μl medium (RPMI, 10% FBS).The cells were incubated with: medium, Tg.1571, GAD.492, TPO.758 (20 μg/ml), a negative control peptide (NC) (20 μg/ml), or mouse anti-CD3/CD28 beads (Life Technologies) that activate all CD4+ T-cells non-specifically, as a positive control. The cells were collected after 5 days for flow cytometry analysis (see Materials and Methods for details).
# Chain of recombinant APS3v-HLA-DR3 (P01911 30-227 W38E/Q39Y/P40S/K41T/R42S/F55Y/Y61H/S66N/I96L/A100K/A102G/A103R/T106N/Q125H/Q178H): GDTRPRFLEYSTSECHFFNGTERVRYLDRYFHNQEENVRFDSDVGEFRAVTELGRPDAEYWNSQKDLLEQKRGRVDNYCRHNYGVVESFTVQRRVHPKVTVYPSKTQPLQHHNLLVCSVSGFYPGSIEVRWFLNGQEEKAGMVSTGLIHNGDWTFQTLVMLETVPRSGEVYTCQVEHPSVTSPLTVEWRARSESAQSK
# Chain of recombinant APS3v-HLA-DR3 (P01903 26-216): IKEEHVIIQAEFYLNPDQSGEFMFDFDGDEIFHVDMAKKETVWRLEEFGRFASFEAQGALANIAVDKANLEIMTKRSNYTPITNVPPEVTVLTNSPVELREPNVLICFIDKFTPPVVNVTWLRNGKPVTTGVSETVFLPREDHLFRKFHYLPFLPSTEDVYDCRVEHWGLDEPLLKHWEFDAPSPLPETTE
smiles,measurement,setting,value
"COc1ccc2cc1Oc1ccc(cc1)C[C@H]1c3c(cc4c(c3Oc3cc5c(cc3OC)CCN(C)[C@@H]5C2)OCO4)CCN1C [S53, Cepharanthine]","inhibition of binding of the 3 peptides (TPO.758, GAD.492, Tg.1571) to the HLA-DR3 pocket","[1]; ELISA inhibition assay, final concentration 0.4 mM",significant inhibition of binding for all 3 peptides
same,"blocking of binding of biotinylated APO, TPO.758, GAD.492 and Tg.1571 to APS3v-HLA-DR3","[1]; decreasing doses 0.4 mM, 0.2 mM, 0.1 mM, 0.05 mM",blocked the binding of each peptide in a dose-dependent manner
same,"stimulation index, T cell proliferation induced by GAD.492","[2]; -1, 5, 6, CFSE, 5 days, vehicle control 3.21",1.53
same,"stimulation index, T cell proliferation induced by TPO.758","[2]; -1, 5, 6, CFSE, 5 days, vehicle control 6.39",3.11
same,T-cell proliferation induced by Tg.1571,"[2]; -1, 5, 6, CFSE, 5 days, vs vehicle","suppressed T-cell proliferation induced by Tg.1571, although not statistically significant"
same,"T-cell activation (lymphocyte proliferation, CFSE) in treated mice vs vehicle treated controls","[2]; IV on days -2, -1, 5 and 6 at 1 mg/kg, sacrificed day 21",significantly suppressed T-cell activation
